The numbers were not newly measured in PubChem BioAssay AID1259410 (Chemical Carcinogenesis Research Information System (CCRIS), 2018), which cites them from elsewhere.

This data set relates to rodent tumor promotion studies, tumor incidence. Kind of data set: CCRIS tumor promotion studies.
[1] abbreviates: Carcinogen: 7,12-DIMETHYLBENZ(A)ANTHRACENE, Doses [Carcinogen]: TOP, Route [Carcinogen]: DERMAL, Route [Promoter]: DERMAL, Species: MOUSE, Strain/Sex: FEMALE.

With `CCCCC(CC)COC(=O)c1ccccc1C(=O)OCC(CC)CCCC` (stereo unspecified), the outcome by setting is: (Carcinogen: DIETHYLNITROSAMINE [55-18-5], Doses [Carcinogen]: 200 MG/KG BW ONCE (STUDY DURATION: 48 WK), Doses [Promoter]: 0, 30, 300, 3000, 12000 PPM IN DIET FOR 46 WK BEGINNING 2 WK POST CARCINOGEN DOSE AND 1 WK PRIOR TO 2/3 PARTIAL HEPATECT, Doses [Promoter]: 0, 30, 300, 3000, 12000 PPM IN DIET FOR 46 WK BEGINNING 2 WK POST CARCINOGEN DOSE AND 1 WK PRIOR TO 2/3 PARTIAL HEPATECT, Route [Carcinogen]: INTRAPERITONEAL, Route [Promoter]: ORAL, Species: RAT, Strain/Sex: F344/MALE) “liver: hepatocellular adenoma”; (Carcinogen: DIETHYLNITROSAMINE [55-18-5], Doses [Carcinogen]: 200 MG/KG BW ONCE (STUDY DURATION: 52 WK), Doses [Promoter]: 0, 30, 300, 3000, 12000 PPM IN DIET FOR 46 WK BEGINNING 2 WK POST CARCINOGEN DOSE AND 1 WK PRIOR TO 2/3 PARTIAL HEPATECT, Doses [Promoter]: 0, 30, 300, 3000, 12000 PPM IN DIET FOR 46 WK BEGINNING 2 WK POST CARCINOGEN DOSE AND 1 WK PRIOR TO 2/3 PARTIAL HEPATECT, Route [Carcinogen]: INTRAPERITONEAL, Route [Promoter]: ORAL, Species: RAT, Strain/Sex: F344/MALE) “liver: hepatocellular adenoma or carcinoma”; (Carcinogen: N-ETHYL-N-HYDROXYETHYLNITROSAMINE, 13147-25-6, Doses [Carcinogen]: 0.05% IN DRINKING WATER FOR 2 WK, Doses [Promoter]: 0, 1.2% IN DIET FOR 24 WK POST CARCINOGEN DOSE (STUDY DURATION: 27 WK), Route [Carcinogen]: ORAL, Species: RAT, Strain/Sex: F344/MALE) “kidney: renal cell tumor”; (Carcinogen: N-NITROSODIETHYLAMINE, 55-18-5, Doses [Carcinogen]: 5 UG/G BW ONCE AT 15 D OF AGE, Doses [Promoter]: 0, 12000 PPM IN DIET BEGINNING AT 4 WK OF AGE AND CONTINUING FOR DURATION OF STUDY (STUDY DURATION: 28 WK), Route [Carcinogen]: INTRAPERITONEAL, Route [Promoter]: ORAL, Species: MOUSE, Strain/Sex: C3H/HENCR/FEMALE) “liver: hepatocellular adenoma”; (Carcinogen: N-NITROSODIETHYLAMINE, 55-18-5, Doses [Carcinogen]: 5 UG/G BW ONCE AT 15 D OF AGE, Doses [Promoter]: 0, 12000 PPM IN DIET BEGINNING AT 4 WK OF AGE AND CONTINUING FOR DURATION OF STUDY (STUDY DURATION: 28 WK), Route [Carcinogen]: INTRAPERITONEAL, Route [Promoter]: ORAL, Species: MOUSE, Strain/Sex: C3H/HENCR/MALE) “liver: hepatocellular adenoma”; (Carcinogen: N-NITROSODIETHYLAMINE, 7119-92-8, Doses [Carcinogen]: 80 MG/KG ONCE, Doses [Promoter]: 0, 3000 PPM IN DIET BEGINNING 1 WK POST CARCINOGEN DOSE AND CONTINUING FOR 168 D (STUDY DURATION: 259 D), Route [Carcinogen]: INTRAPERITONEAL, Route [Promoter]: ORAL, Species: MOUSE, Strain/Sex: B6C3F1/MALE) “liver: hepatocellular adenoma”.

Turning to `O=c1c(O)c(-c2ccc(O)c(O)c2)oc2cc(O)cc(O)c12`, the outcome (Carcinogen: N-ETHYL-N'-NITRO-N-NITROSOGUANIDINE, 4245-77-6, Doses [Carcinogen]: 0.01% IN DRINKING WATER FOR 4 WK PRIOR TO PROMOTER DOSES, Doses [Promoter]: 2% IN DIET FOR 16 WK (STUDY DURATION: 20 WK), Route [Carcinogen]: ORAL, Route [Promoter]: ORAL, Species: MOUSE, Strain/Sex: C57BL6/MALE) is on record as “duodenum: tumor”.

`CC(=O)OC/C=C(C)/C=C/C=C(C)/C=C/C1=C(C)CCCC1(C)C`: the outcome (Carcinogen: 3'-METHYL-4-DIMETHYLAMINOAZOBENZENE, 55-80-1, Doses [Carcinogen]: 0.06% IN DIET FOR 7 WK, Doses [Promoter]: 0, 6.25, 12.5, 25 MG 1/5 D FOR 10 WK ADMINISTERED 3 WK POST CARCINOGEN (STUDY DURATION: 25 WK), Doses [Promoter]: 0, 6.25, 12.5, 25 MG 1/5 D FOR 10 WK ADMINISTERED 3 WK POST CARCINOGEN (STUDY DURATION: 25 WK), Route [Carcinogen]: ORAL, Route [Promoter]: INTRAPERITONEAL, Species: RAT, Strain/Sex: DONRYU/MALE) was “liver: hepatocellular carcinoma”.

Turning to `CC(C)(Oc1ccc(Cl)cc1)C(=O)O`, the outcome (Carcinogen: Diethylnitrosamine (DEN), 55-18-5, Doses [Carcinogen]: 30 mg/kg, single injection 12 d before initial administration of clofibrate, Doses [Promoter]: 0.5% in diet for up to 12 or 20 mo, Route [Carcinogen]: Intraperitoneal, Route [Promoter]: Oral, Species: Rat, Strain/Sex: F344/Male (175 divided into 4 groups, Vehicle control, DEN, DEN + clofibrate, and clofibrate)) is given as “liver: den injection accelerated the appearance of tumors without detectably mod”.

In the case of `Oc1ccccc1Cl`, under setting [1], the outcome is on record as “integumentary system (skin)”.

`COc1ccc(N)cc1N`: under “Carcinogen: N-BIS(2-HYDROXYPROPYL)NITROSAMINE, 53609-64-6, Doses [Carcinogen]: 210 MG/100 G, ONCE (STUDY DURATION: 20 WK), Doses [Promoter]: 0, 0.5% IN DIET FOR 19 WK (STUDY DURATION: 20 WK), Route [Carcinogen]: INTRAPERITONEAL, Route [Promoter]: ORAL, Species: RAT, Strain/Sex: WISTAR/MALE”, the outcome is recorded as “thyroid gland: carcinoma, adenoma”.

For `Oc1ccc2c(c1)CCCC2`, the outcome under setting [1] was “integumentary system (skin)”.

In the case of `Oc1ccc(Cl)cc1Cc1ccccc1`, the outcome (Carcinogen: 7,12-DIMETHYLBENZ[A]ANTHRACENE, 57-97-6, Doses [Carcinogen]: 50 UG IN ACETONE ONCE, Doses [Promoter]: 3 MG IN ACETONE 3/WK FOR 51 WK (STUDY DURATION: 52 WK), Route [Carcinogen]: DERMAL, Route [Promoter]: DERMAL, Species: MOUSE, Strain/Sex: CD-1/FEMALE) is listed as “skin: papilloma”.

As for `ClC(Cl)(Cl)Cl`, the outcome reads like this: (Carcinogen: 3'-METHYL-4-DIMETHYLAMINOAZOBENZENE, Doses [Carcinogen]: DIET, Route [Carcinogen]: ORAL, Species: RAT, Strain/Sex: FEMALE) “liver”; (Carcinogen: (+/-)-TRANS-7,8-DIHYDROBENZO[A]PYRENE-7,8-DIOL, 61443-57-0, Doses [Carcinogen]: 1 UG CO-ADMINISTERED WITH PROMOTER DOSE, Doses [Promoter]: 1 UG INJECTED INTO NEWLY HATCHED SAC-FRY CO-ADMINISTERED WITH CARCINOGEN DOSE (STUDY DURATION: 9 MO), Route [Carcinogen]: INJECTION, Route [Promoter]: INJECTION, Species: FISH, Strain/Sex: RAINBOW TROUT/MALE,FEMALE) “liver: tumor”; (Doses [Carcinogen]: 20 NG/SAC-FRY, Doses [Promoter]: 0, 1 ML/KG AT 21-DAY INTERVALS FOR A TOTAL OF 3 DOSES BEGINNING 25 D POST CARCINOGEN TREATMENT (STUDY DURATION: 3 MO), Route [Carcinogen]: INJECTION, Route [Promoter]: INTRAPERITONEAL, Species: FISH, Strain/Sex: RAINBOW TROUT) “liver: basophilic carcinoma”.
